# Results taken from paper PMC8005870, “Membrane Lipid Requirements of the Lysine Transporter Lyp1 from Saccharomyces cerevisiae” (Journal of molecular biology, 2020).
# Molecular target: T1, Lyp1 (Lyp1-GFP) (Saccharomyces cerevisiae, UniProt P32487)
# T1 construct: full-length Lyp1 with C-terminal TEV-GFP-His10 kept, expressed in Pichia pastoris SMD1163, DDM-solubilised, purified by IMAC and FSEC, reconstituted in proteoliposomes
# T1 sequence (P32487 1-611): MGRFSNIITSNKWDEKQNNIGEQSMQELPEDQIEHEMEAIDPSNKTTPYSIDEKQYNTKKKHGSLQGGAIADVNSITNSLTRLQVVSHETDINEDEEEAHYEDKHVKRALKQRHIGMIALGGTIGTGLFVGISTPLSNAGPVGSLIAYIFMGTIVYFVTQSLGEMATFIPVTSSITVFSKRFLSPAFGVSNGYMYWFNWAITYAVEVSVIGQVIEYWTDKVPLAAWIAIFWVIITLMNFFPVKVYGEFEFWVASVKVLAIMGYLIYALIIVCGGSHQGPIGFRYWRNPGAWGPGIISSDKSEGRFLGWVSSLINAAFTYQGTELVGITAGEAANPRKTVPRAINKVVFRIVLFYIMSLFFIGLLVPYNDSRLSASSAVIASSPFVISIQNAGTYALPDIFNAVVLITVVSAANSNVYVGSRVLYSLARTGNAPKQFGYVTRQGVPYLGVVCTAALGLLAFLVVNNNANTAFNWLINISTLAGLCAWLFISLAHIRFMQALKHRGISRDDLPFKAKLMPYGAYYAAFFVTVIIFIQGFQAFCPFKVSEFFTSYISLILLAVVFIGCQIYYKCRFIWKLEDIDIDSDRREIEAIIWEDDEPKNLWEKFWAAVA
# Experiment: lysine transport turnover versus mol% lipid in proteoliposomes
# Format: biochemical
# Details: proton motive force about -160 mV (valinomycin K+ diffusion potential plus acetate gradient), pH 6.0; defined lipid vesicles; POPS titrated in POPS/POPE/ergosterol vesicles; sigmoidal, cooperative lip
compound,measurement,value
"CCCCCCCC/C=C\CCCCCCCC(=O)O[C@H](COC(=O)CCCCCCCCCCCCCCC)COP(=O)(O)OC[C@H](N)C(=O)O [POPS, 1-palmitoyl-2-oleoyl-sn-glycero-3-phosphoserine]",lysine transport turnover versus mol% lipid in proteoliposomes,We found a sigmoidal relationship between Lyp1 activity and POPS concentration
